Measurements from patent publication US20230364109A1, “GANAXOLONE FOR USE IN TREATMENT OF SUPER REFRACTORY STATUS EPILEPTICUS” (MARINUS PHARMACEUTICALS, INC., priority 2020, published 2023).

Experiments:
[1] = tested on: patients with super refractory SE; details: Phase 3, randomized, double-blind, placebo-controlled; cited from earlier work
[2] = tested on: super refractory status epilepticus; details: for response of SRSE to treatment given before GNX: same patient, before pentobarbitol coma or during it (ACTH)
[3] = tested on: super refractory status epilepticus; test: Case Report 3: IV-to-enteric ganaxolone in a person with super refractory status epilepticus (FIRES); format: in vivo, human
From the text: A previously healthy person presented with encephalopathy and fever and developed super refractory status epilepticus concordant with fever-induced refractory […] (FIRES). On administration, the patient presented in the emergency department (ED) with fever, abdominal pain, and encephalopathy. Patient was admitted to pediatric intensive care unit (PICU) and placed on video-electroencephalogram (vEEG). See, FIG. 4.
Immunomodulatory therapies with IV methylprednisolone and IVIG were initiated concomitantly.
After multiple ASMs, failed attempts to wean pentobarbital, and ketamine and midazolam infusions, they were treated under EIND approval for a trial of IV-to-enteric ganaxolone. Ganaxolone was administered on hospital day 17 using an IV bolus, followed by infusion over 6 days (with boluses as needed for breakthrough seizures) (FIG. 5). Midazolam was discontinued on day 2 of GNX IV protocol; ketamine was discontinued by day 8 with the assistance of phenobarbital loads and maintenance Anakinra was initiated on day 2 of GNX IV protocol (hospital day 19).

[4] = biological target: T1, progesterone receptor (Homo sapiens, UniProt P06401); test: activation of the progesterone receptor (hormonal activity); details: directly or via metabolic conversion
T1 sequence (P06401 1-933): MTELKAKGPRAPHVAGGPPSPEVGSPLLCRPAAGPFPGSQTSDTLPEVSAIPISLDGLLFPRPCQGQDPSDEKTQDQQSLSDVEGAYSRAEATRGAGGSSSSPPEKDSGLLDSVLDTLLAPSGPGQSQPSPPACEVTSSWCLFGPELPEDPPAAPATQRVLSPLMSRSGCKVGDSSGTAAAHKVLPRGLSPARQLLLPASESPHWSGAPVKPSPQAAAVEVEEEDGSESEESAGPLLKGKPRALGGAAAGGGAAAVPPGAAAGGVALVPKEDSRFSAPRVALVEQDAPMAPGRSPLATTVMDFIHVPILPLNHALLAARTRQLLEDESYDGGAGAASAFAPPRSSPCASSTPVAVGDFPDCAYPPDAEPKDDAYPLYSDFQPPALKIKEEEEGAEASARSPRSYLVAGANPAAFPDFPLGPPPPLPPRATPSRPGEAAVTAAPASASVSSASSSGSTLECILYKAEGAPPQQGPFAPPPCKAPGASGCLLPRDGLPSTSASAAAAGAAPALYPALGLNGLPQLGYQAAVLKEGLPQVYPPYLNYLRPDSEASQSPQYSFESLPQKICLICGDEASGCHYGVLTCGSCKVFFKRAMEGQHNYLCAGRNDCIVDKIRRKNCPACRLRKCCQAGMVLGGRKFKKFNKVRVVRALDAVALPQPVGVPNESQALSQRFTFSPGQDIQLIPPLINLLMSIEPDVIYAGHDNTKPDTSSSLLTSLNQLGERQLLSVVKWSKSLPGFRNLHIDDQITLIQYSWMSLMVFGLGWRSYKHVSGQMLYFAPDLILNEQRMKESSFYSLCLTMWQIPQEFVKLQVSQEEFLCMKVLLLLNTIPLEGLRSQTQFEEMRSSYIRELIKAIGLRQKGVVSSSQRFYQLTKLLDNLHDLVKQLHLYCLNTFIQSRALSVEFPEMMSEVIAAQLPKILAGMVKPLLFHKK
From the text: Ganaxolone (3α-hydroxy-3β-methyl-5α-pregnan-20-one) is a 3β-methylated synthetic analogue of the endogenous neurosteroid allopregnanolone with similar biological activity (Carter et al., (1997), The Journal of Pharmacology and Experimental Therapeutics, 280:1284-1295), but it is designed to not activate nuclear (classical) progesterone receptors.

[5] = toxicology studies in animals focusing on prenatal and neonatal development; format: in vivo
From the text: (§1) Ganaxolone has been administered to infants with severe forms of epilepsy as early as 4 months of age. In clinical trials involving administration of ganaxolone over several weeks, the study drug has been tapered off over a 1 to 2-week period.

[6] = tested on: SE; test: ganaxolone intravenous bolus plus continuous infusion in SE (inventors' earlier finding); format: in vivo; details: plasma concentration 500 ng/ml or higher for at least about 8 hours
From the text: As described and exemplified herein, the inventors believe that ganaxolone holds promise as an effective therapy for SRSE. […] However, as discussed above, SRSE patients are an extremely ill subset of patients in which SE continues or recurs despite therapy with anesthetic agents (e.g., midazolam, propofol, ketamine, or barbiturate). […] When this occurs, the patient is typically then re-administered anesthetic agents at doses to cause burst suppression and to induce coma. As such, patients are typically weaned off anesthetics very slowly and typically by reducing anesthetics by no more than about 20% per day.

[7] = safety in the ganaxolone clinical development program; format: in vivo, human
From the text: In the completed placebo-controlled Phase 1, 2, and 3 studies, 0.32% of subjects who received ganaxolone and 0.46% of subjects who received placebo developed elevated LFTs during the study (>3x ULN AST and/or ALT). A subject participating in the ganaxolone paediatric epilepsy study developed liver failure, which was not considered to be related to ganaxolone. The subject was diagnosed with short bowel syndrome, liver steatosis and IgG-cholangitis, which were considered to be the causal factors for the subject’s liver failure. There have been no other cases of Hy’s Law or liver failure in the ganaxolone development program. […] After cessation of the dosing, plasma ganaxolone levels are expected to drop rapidly, but it is possible that low sub-therapeutic levels persist for several days as ganaxolone is slowly released from tissues.
as §1

[8] = tested on: γ-aminobutyric acid type A (GABAA) receptors; details: Carter et al 1997; cited from earlier work
[9] = cited from earlier work
[10] = tested on: status epilepticus; test: Case Report 1: IV to enteric GNX in a person with SE; format: in vivo, human
From the text: FIGS. 3A-3C show video EEGs in the patient described in Example 2 on day 1 (FIG. 3A), day 2 (FIG. 3B), and day 5 (FIG. 3C). […] Double banana bipolar montage: LFF 1 Hz, HFF 70 Hz; sensitivity, 15 µV/mm; time base, 30 mm/s. EEG, electroencephalogram; HFF, high-frequency filter; LFF, low-frequency filter.
A person with a history of sporadic primarily febrile and rare afebrile convulsive seizures in early childhood had been seizure-free for 10 years off medication until they began to have focal seizures with generalization. Seizure semiology was characterized by eye fluttering with rapid bilateral involvement at times with leftward head/eye deviation as clusters prior to generalization. They had recurrent seizures over the first three weeks and was admitted to an outside hospital for SE requiring intubation. […] They were transferred to the inpatient pediatric rehabilitation unit after being seizure-free for one month on 5 antiseizure medications (cannabidiol, perampanel, phenobarbital, lacosamide, lorazepam), pyridoxine, ketogenic diet, anakinra, and menstrual suppression.
A thorough infectious, metabolic, genetic, vascular and autoimmune evaluation was non-diagnostic. While in the inpatient rehabilitation unit they developed a fever of 41.7° C. and respiratory viral panel was positive for parainfluenza. SE returned requiring transfer to the ICU for midazolam and pentobarbital infusions. […] They were seizure-free for two days after drips were weaned before seizures returned prompting vagus nerve stimulator placement and a prolonged 2-week course of IV pentobarbital titrated to EEG burst suppression. As pentobarbital was weaned off, convulsive seizures returned.
They were granted E-IND approval for a trial of IV to enteric GNX. GNX was administered using an IV bolus followed by infusion over 4 days (with boluses as needed for breakthrough seizures): on day 1 pentobarbital was discontinued; by day 3 clinical and electrographic seizures stopped.
One month after ganaxolone initiation, the patient was transferred to inpatient rehabilitation services and they were discharged home 1 month later. They were weaned off the ketogenic diet, anakinra, and felbamate with minimal breakthrough clinical seizures (only in setting of intercurrent illness or decreasing ASMs). […] Patient continues to be on ganaxolone and 4 other ASMs (valproic acid, brivaracetam, lorazepam, perampanel). See, FIGS. 1, 2, and 3A-3C.

[11] = tested on: CYP3A⅘; test: metabolism and interaction with strong CYP inducers (in vitro data and human PK data)
[12] = solubility of ganaxolone; format: physicochemical
Protocol: Ganaxolone is insoluble in water. […] Ganaxolone has a relatively long half-life - approximately 20 hours in human plasma following oral administration (Nohria, V. and Giller, E., Neurotherapeutics, (2007) 4(1): 102-105). Furthermore, ganaxolone has a short Tmax, which means that therapeutic blood levels are reached quickly.
Ganaxolone formulations suitable for parenteral administration in the methods of the present invention may comprise physiologically acceptable sterile aqueous or non-aqueous solutions, dispersions, suspensions or emulsions, and sterile powders for reconstitution into sterile injectable solutions or dispersions. Examples of suitable aqueous and non-aqueous carriers, diluents, solvents, or vehicles including water, ethanol, polyols (propylene glycol, polyethylene-glycol, glycerol, cremophor and the like), suitable mixtures thereof, vegetable oils (such as olive oil) and injectable organic esters such as ethyl oleate. Additionally, ganaxolone can be dissolved at concentrations of >1 mg/ml using water soluble beta cyclodextrins (e.g. beta-sulfobutyl-cyclodextrin and 2-hydroxypropylbetacyclodextrin). A particularly suitable cyclodextrin is a substituted-β-cyclodextrin is Captisol®. […]

CC(=O)[C@H]1CC[C@H]2[C@@H]3CC[C@H]4C[C@H](O)CC[C@]4(C)[C@H]3CC[C@]12C [brexanolone]
efficacy over placebo in SRSE [1]: failed to show efficacy over placebo

CN1C(=O)CN=C(c2ccccc2)c2cc(Cl)ccc21 [diazepam]
response of SRSE to treatment given before GNX [2]: No response

CCC1(C)CC(=O)NC1=O (stereo not drawn) [ethoxsuccimide]
response of SRSE to treatment given before GNX [2]: No response

CC(=O)[C@H]1CC[C@H]2[C@@H]3CC[C@H]4C[C@](C)(O)CC[C@]4(C)[C@H]3CC[C@]12C [ganaxolone, 3α-hydroxy-3β-methyl-5α-pregnan-20-one]
day of GNX IV protocol on which midazolam was discontinued ([3]; IV bolus, infusion over 6 days): 2 days | clinical status ([3]; at 6 weeks, transfer from ICU to the floor): alert and was responsive with some vocalizations | clinical status ([3]; by 4 weeks after admission): more responsive | day by which ketamine was discontinued ([3]; with the assistance of phenobarbital loads and maintenance): ≤ 8 days | activation of the progesterone receptor [4]: does not activate the progesterone receptor directly or indirectly | prenatal and neonatal developmental toxicity [5]: have not demonstrated toxicities | suppression of SE [6]: rapid and continued suppression of SE | withdrawal symptoms after cessation ([7]; clinical trials, tapered off over 1 to 2 weeks): no reports of withdrawal symptoms | subjects who developed elevated LFTs (>3x ULN AST and/or ALT) ([7]; completed placebo-controlled Phase 1, 2, and 3 studies): 0.32% | ECG intervals, vital signs, physical or neurological examinations ([7]; development program overall): no clinically significant trends | excretion to breast milk ([7]; ganaxolone and its metabolites): excreted to breast milk | action on GABAA receptors in the CNS [8]: positive allosteric modulator | time to improvement on EEG ([2]; after IV GNX bolus 0.64 mg/kg): ≤ 10 min | clinical seizures after hospitalization ([2]; four weeks after discharge, on oral GNX, 20 seizures per day at baseline): no clinical seizures | time of IV GNX until extubation ([2]; in vivo, iv): 48 h | half-life ([9]; human plasma, oral administration, Nohria and Giller 2007): approximately 20 hours | oral bioavailability ([9]; in contrast to allopregnanolone): orally bioavailable | Tmax ([9]; in vivo): short | day by which clinical and electrographic seizures stopped ([10]; IV bolus followed by infusion over 4 days): ≤ 3 days | video EEG finding (FIG. 3C) ([10]; day 5 of protocol, transition from IV to enteric GNX): cessation of seizures | seizure status after transition from IV to enteric GNX ([10]; from Day 5): has remained seizure-free | durability of response ([10]; more than one year later): response to ganaxolone and seizure cessation were sustained | metabolizing enzyme ([11]; human, in vivo): metabolized by CYP3A⅘ | lowering in overall ganaxolone levels and exposure ([11]; subjects taking strong CYP inducers (carbamazepine and phenytoin)): ~45% | solubility ([12]; aqueous with cosolvent or surfactant or cyclodextrin, beta-sulfobutyl-cyclodextrin, 2-hydroxypropylbetacyclodextrin, read-out: concentration dissolved using water soluble beta cyclodextrins): > 1000 µg/mL | solubility in water ([12]; water): insoluble

O=C1Nc2ccc(Cl)cc2C(c2ccccc2Cl)=NC1O (stereo not drawn) [lorazepam]
response of SRSE to treatment given before GNX [2]: No response

Cc1ncc2n1-c1ccc(Cl)cc1C(c1ccccc1F)=NC2 [midazolam]
response of SRSE to treatment given before GNX [2]: No response

N#Cc1ccccc1-c1cc(-c2ccccn2)cn(-c2ccccc2)c1=O [perampanel]
response of SRSE to treatment given before GNX [2]: No response

CCCC(CCC)C(=O)O [valproic acid]
serum level ([2]; female, human, in vivo): 106 µg/mL
